Source: patent US12303509B2, “Compounds for the treatment of BRAF-associated diseases and disorders” (Pfizer Inc., priority 2020, dated 2025)
pIC50: −log10 of the molar value. Counter-ions that a name gives are not always drawn. Like-named read-outs stand apart in the source and are kept apart here.

Experiments:
P-gp (MDR1) = P-gp (MDR1) (Homo sapiens (Human), UniProt P08183); assay: MDR1 LLC-PK1 permeability assay: efflux ratio; format: in vitro ADME; conditions: pig
Text: (§1) Final organic concentration in the assay was 1%.

A375 cells = assay: Cellular phospho-ERK inhibition assay in A375 cells; format: cell-based; conditions: Homo sapiens, A-375, A375 cells (head prints A357), 2 hours treatment, read-out: A357 cell IC50
In short: (§2)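 A375 (DMEM) or H1755 (RPMI) cells in 10% FBS treated 2 h at 37 °C with 9-point series, 66 pM–10 μM, 0.25% DMSO. Phospho-ERK1/2 (Thr202/Tyr204) measured by In Cell Western, normalised to GAPDH and to DMSO and 10 μM binimetinib controls; IC50 by 4-parameter fit.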

[1] = biological target: full-length FLAG-tagged B-Raf(V600E) (Homo sapiens (Human), UniProt P15056, V600E); assay: BRAF V600E enzyme assay (TR-FRET competitive displacement); format: binding
In short: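 Displacement of 50 nM Tracer 1710 from 5 nM full-length N-terminally FLAG-tagged B-Raf(V600E), detected by TR-FRET with 0.5 nM Eu anti-FLAG antibody, in 25 mM HEPES pH 7.4, 10 mM MgCl2, 2% DMSO; 60 min at ~22 °C. Compounds 11-point, 3-fold from 10 μM; IC50 from 4-parameter fit at 50 POC.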

BCRP = BCRP (Homo sapiens (Human), UniProt Q9UNQ0); assay: BCRP MDCKII permeability assay: efflux ratio; format: in vitro ADME; conditions: dog
H1755 cells = assay: Cellular phospho-ERK inhibition assay in H1755 cells; format: cell-based; conditions: Homo sapiens, NCI-H1755, 2 hours treatment, read-out: H1755 Cell IC50
In short: as §2

[2] = MDR1 LLC-PK1 and BCRP MDCKII permeability assay: permeability coefficient (Papp); format: in vitro ADME
Text: as §1

[3] = averaged IC50, TR-FRET tracer displacement, 60 min

Sequence of P-gp (MDR1) (P08183 whole entry, species assumed): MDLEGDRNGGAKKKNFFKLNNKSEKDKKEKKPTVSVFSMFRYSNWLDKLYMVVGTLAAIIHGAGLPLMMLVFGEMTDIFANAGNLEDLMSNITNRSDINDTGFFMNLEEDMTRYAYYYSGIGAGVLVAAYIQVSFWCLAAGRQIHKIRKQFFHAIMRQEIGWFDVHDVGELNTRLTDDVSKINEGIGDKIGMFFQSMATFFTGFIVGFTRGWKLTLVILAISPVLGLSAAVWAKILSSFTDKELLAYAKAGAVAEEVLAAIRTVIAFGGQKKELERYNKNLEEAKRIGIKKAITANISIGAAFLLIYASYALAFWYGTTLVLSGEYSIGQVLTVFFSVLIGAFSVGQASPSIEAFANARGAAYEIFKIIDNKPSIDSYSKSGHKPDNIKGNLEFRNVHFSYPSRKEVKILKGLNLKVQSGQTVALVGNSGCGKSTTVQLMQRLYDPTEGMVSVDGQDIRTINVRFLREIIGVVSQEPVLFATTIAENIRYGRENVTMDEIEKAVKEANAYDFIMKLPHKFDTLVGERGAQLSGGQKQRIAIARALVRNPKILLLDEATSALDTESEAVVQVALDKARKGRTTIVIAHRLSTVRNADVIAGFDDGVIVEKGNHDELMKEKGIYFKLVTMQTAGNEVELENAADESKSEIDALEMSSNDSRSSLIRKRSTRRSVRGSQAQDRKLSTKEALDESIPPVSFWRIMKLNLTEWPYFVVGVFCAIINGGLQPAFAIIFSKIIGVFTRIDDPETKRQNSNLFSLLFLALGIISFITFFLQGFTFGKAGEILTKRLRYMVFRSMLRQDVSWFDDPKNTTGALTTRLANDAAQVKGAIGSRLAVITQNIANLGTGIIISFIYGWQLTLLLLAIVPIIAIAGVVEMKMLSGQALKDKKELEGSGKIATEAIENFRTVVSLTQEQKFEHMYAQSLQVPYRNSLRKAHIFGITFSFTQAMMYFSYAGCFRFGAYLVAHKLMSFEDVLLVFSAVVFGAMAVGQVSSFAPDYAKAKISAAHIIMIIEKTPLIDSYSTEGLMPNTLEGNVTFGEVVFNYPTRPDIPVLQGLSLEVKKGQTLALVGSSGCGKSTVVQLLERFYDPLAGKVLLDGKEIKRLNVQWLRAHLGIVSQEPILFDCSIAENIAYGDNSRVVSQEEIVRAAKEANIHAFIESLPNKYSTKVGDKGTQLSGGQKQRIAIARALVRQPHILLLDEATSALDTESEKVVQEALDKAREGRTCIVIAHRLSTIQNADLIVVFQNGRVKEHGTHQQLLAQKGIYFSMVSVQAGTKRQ
Sequence of full-length FLAG-tagged B-Raf(V600E) (P15056 whole entry V600E): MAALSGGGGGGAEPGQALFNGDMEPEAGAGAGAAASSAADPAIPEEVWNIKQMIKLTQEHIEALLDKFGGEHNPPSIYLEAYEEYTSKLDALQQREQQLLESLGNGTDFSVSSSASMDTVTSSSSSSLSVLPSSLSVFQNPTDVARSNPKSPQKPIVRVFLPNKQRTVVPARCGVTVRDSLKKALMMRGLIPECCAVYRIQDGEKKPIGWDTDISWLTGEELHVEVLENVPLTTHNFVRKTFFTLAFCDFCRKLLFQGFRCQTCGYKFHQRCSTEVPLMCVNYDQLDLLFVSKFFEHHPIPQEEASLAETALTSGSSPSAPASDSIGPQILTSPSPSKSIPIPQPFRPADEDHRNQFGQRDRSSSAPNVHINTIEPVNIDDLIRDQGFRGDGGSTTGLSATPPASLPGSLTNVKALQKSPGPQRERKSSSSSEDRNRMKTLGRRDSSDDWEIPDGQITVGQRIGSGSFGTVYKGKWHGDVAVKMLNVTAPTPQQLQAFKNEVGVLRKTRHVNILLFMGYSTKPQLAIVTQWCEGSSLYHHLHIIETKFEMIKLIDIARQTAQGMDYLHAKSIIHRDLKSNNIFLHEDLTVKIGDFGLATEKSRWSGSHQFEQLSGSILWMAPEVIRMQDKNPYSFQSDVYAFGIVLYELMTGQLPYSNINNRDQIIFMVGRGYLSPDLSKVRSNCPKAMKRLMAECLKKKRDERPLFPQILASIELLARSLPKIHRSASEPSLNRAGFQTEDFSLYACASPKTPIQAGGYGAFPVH
Sequence of BCRP (Q9UNQ0 whole entry): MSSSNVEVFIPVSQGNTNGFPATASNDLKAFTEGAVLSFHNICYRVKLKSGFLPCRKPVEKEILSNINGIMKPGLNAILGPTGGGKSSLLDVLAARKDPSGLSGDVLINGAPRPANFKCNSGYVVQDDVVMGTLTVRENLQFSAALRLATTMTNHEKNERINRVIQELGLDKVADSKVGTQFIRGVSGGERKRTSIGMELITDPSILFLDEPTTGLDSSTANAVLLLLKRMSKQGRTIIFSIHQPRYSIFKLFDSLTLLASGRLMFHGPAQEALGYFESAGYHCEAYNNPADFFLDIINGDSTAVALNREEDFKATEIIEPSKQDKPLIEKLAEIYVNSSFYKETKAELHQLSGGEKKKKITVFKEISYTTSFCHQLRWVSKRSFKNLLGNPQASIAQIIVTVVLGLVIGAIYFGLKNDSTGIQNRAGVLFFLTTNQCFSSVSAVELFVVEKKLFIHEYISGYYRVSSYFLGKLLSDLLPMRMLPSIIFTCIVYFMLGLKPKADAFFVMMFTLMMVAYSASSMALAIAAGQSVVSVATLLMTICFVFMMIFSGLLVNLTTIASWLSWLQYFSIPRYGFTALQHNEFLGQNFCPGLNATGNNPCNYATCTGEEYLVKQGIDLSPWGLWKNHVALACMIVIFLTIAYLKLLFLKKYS

| SMILES | efflux ratio at 2 h, 1 µM (P-gp (MDR1)) | pIC50 (A375 cells) | pIC50 [1, 3] | efflux ratio at 2 h, 1 µM (BCRP) | pIC50 (H1755 cells) | Papp at 2 h, 1 µM [2] [×10⁻⁶ cm/s] | pIC50 [1] |
| --- | --- | --- | --- | --- | --- | --- | --- |
| Cn1cnc2ccc(Oc3c(F)ccc(NS(=O)(=O)N4CC5CC4C5)c3Cl)c(F)c2c1=O [Example 49, N-(2-chloro-4-fluoro-3-((5-fluoro-3-methyl-4-oxo-3,4-dihydroquinazolin-6-yl)oxy)phenyl)-2-azabicyclo[2.1.1]hexane-2-sulfonamide] | 1.4 | 8.52 | 8.70 | 1 | 7.15 | 30 |  |
| Cn1cnc2ccc(Nc3c(F)ccc(NS(=O)(=O)N4CCCC4)c3Cl)c(C#N)c2c1=O [Example 50, N-(2-chloro-3-((5-cyano-3-methyl-4-oxo-3,4-dihydroquinazolin-6-yl)amino)-4-fluorophenyl)pyrrolidine-1-sulfonamide trifluoroacetate] | 5.3 | 9.00 | 8.70 | 6.3 | 7.70 | 26 |  |
| Cc1c(Oc2c(F)ccc(NS(=O)(=O)N3CC[C@@H](OC(F)F)C3)c2Cl)ccc2ncn(C)c(=O)c12.O=C(O)C(F)(F)F [Example 57, (R)-N-(2-chloro-3-((3,5-dimethyl-4-oxo-3,4-dihydroquinazolin-6-yl)oxy)-4-fluorophenyl)-3-(difluoromethoxy)pyrrolidine-1-sulfonamide trifluoroacetate] | 0.9 | 7.57 |  | 0.9 | 7.21 | 25 | 8.52 |
| Cn1cnc2ccc(Oc3c(F)ccc(NS(=O)(=O)N4C[C@@H](F)[C@@H](F)C4)c3Cl)c(Cl)c2c1=O [Example 59, cis-N-(2-chloro-3-((5-chloro-3-methyl-4-oxo-3,4-dihydroquinazolin-6-yl)oxy)-4-fluorophenyl)-3,4-difluoropyrrolidine-1-sulfonamide] | 4.9 | 8.00 |  | 12.9 | 7.22 | 31 | 9.00 |
| Cn1cnc2ccc(Oc3c(F)ccc(NS(=O)(=O)N4CCC(F)(F)C4)c3Cl)c(Cl)c2c1=O [Example 61, N-(2-chloro-3-((5-chloro-3-methyl-4-oxo-3,4-dihydroquinazolin-6-yl)oxy)-4-fluorophenyl)-3,3-difluoropyrrolidine-1-sulfonamide] | 2.2 | 7.60 |  | 3.3 | 6.71 | 29 | 8.70 |
| Cn1cnc2ccc(Oc3c(F)ccc(NS(=O)(=O)N4CCC(F)(F)C4)c3Cl)c(F)c2c1=O [Example 63, N-(2-chloro-4-fluoro-3-((5-fluoro-3-methyl-4-oxo-3,4-dihydroquinazolin-6-yl)oxy)phenyl)-3,3-difluoropyrrolidine-1-sulfonamide] | 1.7 | 8.15 |  | 3.6 | 7.08 | 39 | 9.00 |

The next lines start with the values.

| efflux ratio at 2 h, 1 µM (P-gp (MDR1)) | pIC50 (A375 cells) | pIC50 [1, 3] | efflux ratio at 2 h, 1 µM (BCRP) | pIC50 (H1755 cells) | Papp at 2 h, 1 µM [2] [×10⁻⁶ cm/s] | pIC50 [1] | SMILES |
| --- | --- | --- | --- | --- | --- | --- | --- |
| 2 | 8.22 | 8.15 | 1.8 | 7.60 | 30 |  | [2H]C([2H])([2H])O[C@@H]1CCN(S(=O)(=O)Nc2ccc(F)c(Nc3ccc4ncn(C)c(=O)c4c3Cl)c2Cl)C1 [Example 53, (R)-N-(2-chloro-3-((5-chloro-3-methyl-4-oxo-3,4-dihydroquinazolin-6-yl)amino)-4-fluorophenyl)-3-(methoxy-d3)pyrrolidine-1-sulfonamide trifluoroacetate] |
| 3.6 | 8.40 | 7.77 | 3 | 7.48 | 31 |  | [2H]C([2H])([2H])O[C@@H]1CCN(S(=O)(=O)Nc2ccc(F)c(Nc3ccc4ncn(C)c(=O)c4c3F)c2Cl)C1 [Example 54, (R)-N-(2-chloro-4-fluoro-3-((5-fluoro-3-methyl-4-oxo-3,4-dihydroquinazolin-6-yl)amino)phenyl)-3-(methoxy-d3)pyrrolidine-1-sulfonamide trifluoroacetate] |
| 1.5 | 7.57 | 7.35 | 1 | 6.91 | 33 |  | [2H]C([2H])([2H])O[C@@H]1CCN(S(=O)(=O)Nc2ccc(F)c(Nc3ccc4ncn(C)c(=O)c4c3C)c2Cl)C1 [Example 55, (R)-N-(2-chloro-3-((3,5-dimethyl-4-oxo-3,4-dihydroquinazolin-6-yl)amino)-4-fluorophenyl)-3-(methoxy-d3)pyrrolidine-1-sulfonamide trifluoroacetate] |
| 5.3 | 8.22 | 8.52 | 7.3 | 7.49 | 27 |  | Cn1cnc2ccc(Nc3cc(Cl)cc(NS(=O)(=O)N4CC[C@@H](F)C4)c3F)c(F)c2c1=O [Example 58, (R)-N-(5-chloro-2-fluoro-3-((5-fluoro-3-methyl-4-oxo-3,4-dihydroquinazolin-6-yl)amino)phenyl)-3-fluoropyrrolidine-1-sulfonamide trifluoroacetate] |
| 3.1 | 8.15 |  | 1.6 | 7.21 | 18 | 8.70 | Cn1cnc2ccc(Oc3c(F)ccc(NS(=O)(=O)N4CC[C@@H](OC(F)F)C4)c3Cl)c(Cl)c2c1=O [Example 60, (R)-N-(2-chloro-3-((5-chloro-3-methyl-4-oxo-3,4-dihydroquinazolin-6-yl)oxy)-4-fluorophenyl)-3-(difluoromethoxy)pyrrolidine-1-sulfonamide] |
| 1.6 | 7.51 | 7.89 | 1 | 6.73 | 29 |  | CC[C@@H]1CCN(S(=O)(=O)Nc2ccc(F)c(Nc3ccc4ncn(C)c(=O)c4c3F)c2Cl)C1 [Example 62, (R)-N-(2-chloro-4-fluoro-3-((5-fluoro-3-methyl-4-oxo-3,4-dihydroquinazolin-6-yl)amino)phenyl)-3-ethylpyrrolidine-1-sulfonamide trifluoroacetate] |
| 1.3 | 7.89 |  | 1 | 6.90 | 28 | 8.70 | Cn1cnc2ccc(Oc3c(F)ccc(NS(=O)(=O)N4CC5CC5C4)c3Cl)c(F)c2c1=O (stereo not drawn) [Example 65, N-(2-chloro-4-fluoro-3-((5-fluoro-3-methyl-4-oxo-3,4-dihydroquinazolin-6-yl)oxy)phenyl)-3-azabicyclo[3.1.0]hexane-3-sulfonamide] |
| 2.2 | 8.22 |  | 3.1 | 7.36 | 25 | 8.40 | Cn1cnc2ccc(Oc3c(F)ccc(NS(=O)(=O)N4CC[C@@H](OC(F)F)C4)c3Cl)c(F)c2c1=O [Example 66, (R)-N-(2-chloro-4-fluoro-3-((5-fluoro-3-methyl-4-oxo-3,4-dihydroquinazolin-6-yl)oxy)phenyl) 3-(difluoromethoxy)pyrrolidine-1-sulfonamide] |
